The experiment concerns the target T1, WT human SLACK (Homo sapiens, UniProt Q5JUK3).
T1 construct: host or cells: CHO-K1
T1 sequence (Q5JUK3 1-1235 isoform Q5JUK3-3): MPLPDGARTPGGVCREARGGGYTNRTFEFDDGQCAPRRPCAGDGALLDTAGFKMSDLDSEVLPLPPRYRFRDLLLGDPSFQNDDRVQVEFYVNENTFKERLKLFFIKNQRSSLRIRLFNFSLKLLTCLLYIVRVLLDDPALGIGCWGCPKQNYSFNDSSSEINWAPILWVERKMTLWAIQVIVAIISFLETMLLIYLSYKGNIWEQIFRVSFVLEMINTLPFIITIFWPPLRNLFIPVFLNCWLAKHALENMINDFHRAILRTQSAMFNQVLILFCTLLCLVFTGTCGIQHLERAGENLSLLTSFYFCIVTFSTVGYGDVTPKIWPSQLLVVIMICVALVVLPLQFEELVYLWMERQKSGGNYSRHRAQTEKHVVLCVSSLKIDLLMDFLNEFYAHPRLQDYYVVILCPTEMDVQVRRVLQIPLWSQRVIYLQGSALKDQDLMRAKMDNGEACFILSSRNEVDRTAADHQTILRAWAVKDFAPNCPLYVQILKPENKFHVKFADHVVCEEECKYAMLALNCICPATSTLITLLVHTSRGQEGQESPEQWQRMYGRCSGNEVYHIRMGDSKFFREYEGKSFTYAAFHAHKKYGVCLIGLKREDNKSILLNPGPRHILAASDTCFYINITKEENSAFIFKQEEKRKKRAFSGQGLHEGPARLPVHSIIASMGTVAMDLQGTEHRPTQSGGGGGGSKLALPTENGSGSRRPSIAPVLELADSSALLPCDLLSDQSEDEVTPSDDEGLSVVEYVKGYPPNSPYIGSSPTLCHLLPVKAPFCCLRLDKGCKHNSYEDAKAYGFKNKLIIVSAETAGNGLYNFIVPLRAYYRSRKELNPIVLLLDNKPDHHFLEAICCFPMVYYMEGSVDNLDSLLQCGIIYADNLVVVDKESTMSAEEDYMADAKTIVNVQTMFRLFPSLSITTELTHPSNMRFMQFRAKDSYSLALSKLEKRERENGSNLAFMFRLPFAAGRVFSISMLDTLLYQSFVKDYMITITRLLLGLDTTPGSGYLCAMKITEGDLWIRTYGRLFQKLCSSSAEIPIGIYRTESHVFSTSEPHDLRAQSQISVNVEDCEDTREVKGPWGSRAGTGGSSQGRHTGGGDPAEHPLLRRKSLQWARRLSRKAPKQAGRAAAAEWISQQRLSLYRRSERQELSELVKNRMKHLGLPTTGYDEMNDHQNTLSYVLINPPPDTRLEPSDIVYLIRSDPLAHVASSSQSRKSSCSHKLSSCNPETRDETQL
The experiment is described as follows: Whole-cell automated patch clamp (APC) in CHO-K1 cells stably expressing WT human SLACK. Format: cell-based. Particulars: for pIC50: APC, CHO-K1 cells stably expressing WT human SLACK, averages (n ≥ 3); for SLACK Imax: maximum inhibition at 30 µM test compound standardized to VU0606170 (set at 100%), WT human SLACK. How it is done: Using concentrations ranging from 0.125 to 30 µM in half-log steps, a concentration–response relationship was generated for each new analog using our APC assay in CHO-K1 cells stably expressing WT SLACK. A minimum of three cells, i.e., replicates, were collected per concentration for each analog.
Automated patch clamp recording was performed with a SyncroPatch 768 PE system (Nanion, Munich, Germany) as previously described. Whole-cell recordings were performed at room temperature. Cells were harvested by first washing with PBS without Mg^2+ or Ca^2+ (Gibco, Billings, MT, USA) to remove cell culture medium, followed by dissociation with TryPLE (Gibco, Billings, MT, USA). Cells were then resuspended and diluted to 200,000 cells/mL in external solution. External solution contained 105 mM NaCl, 4 mM KCl, 1 mM MgCl2, 5 mM CaCl2, 10 mM HEPES, 40 mM N-Methyl-D-glucamine chloride, titrated to pH 7.4 with NaOH and osmolarity of 300 mOsm/kg; internal solution contained 70 mM NaCl, 70 mM KF, 10 mM KCl, 5 mM EGTA, 5mM HEPES, titrated to a pH 7.2 with KOH and osmolarity of 295 mOsm/kg.
The APC protocol was set as following: Cells were held at […] −80 mV for 100 ms, then a ramp protocol was performed from −100 mV to 80 mV at 0.4 mV/ms, hold the cell at −80 mV for another 100 ms, then steps were performed at −20 mV, 0 mV, +20 mV, +40 mV, and +60 mV for 100 ms of each step. Whole-cell currents were measured at 0 mV and normalized to current after external buffer addition.

pIC50: −log10 of the molar value.

In the case of `CC(C)(Oc1ccc(Cl)cc1)C(=O)Nc1cnc(Oc2c(F)cccc2F)nc1` [Analog 40], the pIC50 is 6.28 and the “SLACK Imax” value stood at 98%. The “Fold improvement in potency relative to 10” value (WT SLACK APC IC50) was approximately 3 fold.

For the compound `CN(c1ccc(C#N)cc1)c1ncc(NC(=O)C(C)(C)Oc2ccc(Cl)cc2)cn1` [Analog 66], the pIC50 is 6.04 and the “SLACK Imax” value was 95%.

These data come from article PMC11643494, “Structure–Activity Relationship Studies in a Series of 2-Aryloxy-N-(pyrimidin-5-yl)acetamide Inhibitors of SLACK Potassium Channels” (Molecules, 2024).
